Reference: the supplement of paper PMC10307832

Columns and labels:
Test in all cases: relative viability (nuclei count vs DMSO), 5 days (fraction); higher = more cells survive
[1] = test system: NCI-H2347
How it was run: (§1)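 Five library-drug doses in √10 steps were combined with a fixed anchor-drug dose, or a single drug was given alone, by pin tool to lung cancer cell lines in 1536-well plates the day after seeding. Nuclei were stained and counted after 5 days. Relative viability is the nuclei count in treated wells over that in vehicle wells, taken as the median of duplicate plates.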

[2] = test system: LK-2
How it was run: as §1

[3] = test system: NCI-H650
How it was run: as §1

[4] = test system: ChaGo-K-1
How it was run: as §1

[5] = test system: NCI-H358
How it was run: as §1

[6] = test system: NCI-H1944
How it was run: as §1

[7] = test system: SW 900
How it was run: as §1

[8] = test system: NCI-H520
How it was run: as §1

[9] = test system: SW 1573
How it was run: as §1

[10] = test system: NCI-H3122
How it was run: as §1

[11] = test system: NCI-H460
How it was run: as §1

[12] = test system: NCI-H1755
How it was run: as §1

[13] = test system: NCI-H1666
How it was run: as §1

[14] = test system: NCI-H441
How it was run: as §1

[15] = test system: A-427
How it was run: as §1

[16] = test system: H3255
How it was run: as §1

[17] = test system: NCI-H2085
How it was run: as §1

[18] = test system: NCI-H1734
How it was run: as §1

[19] = test system: NCI-H596
How it was run: as §1

[20] = test system: NCI-H322M
How it was run: as §1

[21] = test system: NCI-H1650
How it was run: as §1

[22] = test system: NCI-H1355
How it was run: as §1

[23] = test system: NCI-H838
How it was run: as §1

[24] = test system: EKVX
How it was run: as §1

[25] = test system: NCI-H2228
How it was run: as §1

## CCCCCCCCCCCC1=C(O)C(=O)C=C(O)C1=O [Embelin] + O=C(CCCCCCC(=O)Nc1ccccc1)NO [Vorinostat] (partner 1 µM)
[1]; first compound 0.08 µM
  relative viability: 0.557
[1]; first compound 0.8 µM
  relative viability: 0.628
[1]; first compound 2.53 µM
  relative viability: 0.513
[1]; first compound 8 µM
  relative viability: 0.656
[2]; first compound 0.08 µM
  relative viability: 0.308
[2]; first compound 0.8 µM
  relative viability: 0.28
[2]; first compound 2.53 µM
  relative viability: 0.261
[2]; first compound 8 µM
  relative viability: 0.307
[3]; first compound 0.08 µM
  relative viability: 0.393
[3]; first compound 0.8 µM
  relative viability: 0.557
[3]; first compound 2.53 µM
  relative viability: 0.354
[3]; first compound 8 µM
  relative viability: 0.484
[4]; first compound 0.08 µM
  relative viability: 0.739
[4]; first compound 0.8 µM
  relative viability: 0.782
[4]; first compound 2.53 µM
  relative viability: 0.871
[4]; first compound 8 µM
  relative viability: 0.755
[5]; first compound 0.08 µM
  relative viability: 0.699
[5]; first compound 0.8 µM
  relative viability: 0.876
[5]; first compound 2.53 µM
  relative viability: 0.707
[5]; first compound 8 µM
  relative viability: 0.697
[6]; first compound 0.08 µM
  relative viability: 0.577
[6]; first compound 0.8 µM
  relative viability: 0.643
[6]; first compound 2.53 µM
  relative viability: 0.656
[6]; first compound 8 µM
  relative viability: 0.589
[7]; first compound 0.08 µM
  relative viability: 0.604
[7]; first compound 0.8 µM
  relative viability: 0.718
[7]; first compound 2.53 µM
  relative viability: 0.538
[7]; first compound 8 µM
  relative viability: 0.315
[8]; first compound 0.08 µM
  relative viability: 0.741
[8]; first compound 0.8 µM
  relative viability: 0.816
[8]; first compound 2.53 µM
  relative viability: 0.75
[8]; first compound 8 µM
  relative viability: 0.573
[9]; first compound 0.08 µM
  relative viability: 0.7
[9]; first compound 0.8 µM
  relative viability: 1.1
[9]; first compound 2.53 µM
  relative viability: 0.817
[9]; first compound 8 µM
  relative viability: 0.716
[10]; first compound 0.08 µM
  relative viability: 0.816
[10]; first compound 0.8 µM
  relative viability: 0.999
[10]; first compound 2.53 µM
  relative viability: 1.01
[10]; first compound 8 µM
  relative viability: 0.915
[11]; first compound 0.08 µM
  relative viability: 0.687
[11]; first compound 0.8 µM
  relative viability: 0.948
[11]; first compound 2.53 µM
  relative viability: 0.933
[11]; first compound 8 µM
  relative viability: 0.397
[12]; first compound 0.08 µM
  relative viability: 0.723
[12]; first compound 0.8 µM
  relative viability: 0.813
[12]; first compound 2.53 µM
  relative viability: 0.809
[12]; first compound 8 µM
  relative viability: 0.574
[13]; first compound 0.08 µM
  relative viability: 1.07
[13]; first compound 0.8 µM
  relative viability: 1.03
[13]; first compound 2.53 µM
  relative viability: 1.09
[13]; first compound 8 µM
  relative viability: 1.05
[14]; first compound 0.08 µM
  relative viability: 0.691
[14]; first compound 0.8 µM
  relative viability: 0.905
[14]; first compound 2.53 µM
  relative viability: 0.841
[14]; first compound 8 µM
  relative viability: 0.657
[15]; first compound 0.08 µM
  relative viability: 0.856
[15]; first compound 0.8 µM
  relative viability: 0.899
[15]; first compound 2.53 µM
  relative viability: 0.88
[15]; first compound 8 µM
  relative viability: 0.441
[16]; first compound 0.08 µM
  relative viability: 0.873
[16]; first compound 0.8 µM
  relative viability: 0.834
[16]; first compound 2.53 µM
  relative viability: 0.711
[16]; first compound 8 µM
  relative viability: 0.948
[17]; first compound 0.08 µM
  relative viability: 0.742
[17]; first compound 0.8 µM
  relative viability: 0.932
[17]; first compound 2.53 µM
  relative viability: 0.807
[17]; first compound 8 µM
  relative viability: 0.755
[18]; first compound 0.08 µM
  relative viability: 0.868
[18]; first compound 0.8 µM
  relative viability: 0.968
[18]; first compound 2.53 µM
  relative viability: 0.929
[18]; first compound 8 µM
  relative viability: 0.749
[19]; first compound 0.08 µM
  relative viability: 0.56
[19]; first compound 0.8 µM
  relative viability: 0.73
[19]; first compound 2.53 µM
  relative viability: 0.667
[19]; first compound 8 µM
  relative viability: 0.495
[20]; first compound 0.08 µM
  relative viability: 0.873
[20]; first compound 0.8 µM
  relative viability: 0.954
[20]; first compound 2.53 µM
  relative viability: 1.01
[20]; first compound 8 µM
  relative viability: 0.801
[21]; first compound 0.08 µM
  relative viability: 0.634
[21]; first compound 0.8 µM
  relative viability: 0.641
[21]; first compound 2.53 µM
  relative viability: 0.543
[21]; first compound 8 µM
  relative viability: 0.562
[22]; first compound 0.08 µM
  relative viability: 0.649
[22]; first compound 0.8 µM
  relative viability: 0.699
[22]; first compound 2.53 µM
  relative viability: 0.636
[22]; first compound 8 µM
  relative viability: 0.523
[23]; first compound 0.08 µM
  relative viability: 0.746
[23]; first compound 0.8 µM
  relative viability: 0.835
[23]; first compound 2.53 µM
  relative viability: 0.782
[23]; first compound 8 µM
  relative viability: 0.704
[24]; first compound 0.08 µM
  relative viability: 0.744
[24]; first compound 0.8 µM
  relative viability: 0.962
[24]; first compound 2.53 µM
  relative viability: 0.832
[24]; first compound 8 µM
  relative viability: 0.754
[25]; first compound 0.08 µM
  relative viability: 0.407
[25]; first compound 0.8 µM
  relative viability: 0.819
[25]; first compound 2.53 µM
  relative viability: 0.36
[25]; first compound 8 µM
  relative viability: 0.85
